For test [1], the system named is U138 human glioblastoma cells. As to the kind of experiment: MTT cytotoxicity assay, U138. Format: cell-based. As to conditions: 48 h incubation, 3 independent experiments, read-out: IC50 (mean ± SE). How it is done:
(§1) Human brain tumor cells lines U87 MG (Cat.# HTB-14), U118 MG (Cat. # HTB-15), U138 (Cat # HTB-16), U373 MG (CAT. # HTB-17), and T98G (Cat. # CRL-1690) and breast cancer cell lines BT-20 (Cat # HTB-19), MDA-MB-231 (Cat # HTB-26), MDA-MB-361 (Cat # HTB-27), and MCF-7 (Cat # HTB-22) were obtained from American Type Culture Collection (ATCC, Rockville, Md.) and maintained as continuous cell lines in Dulbecco's modified Eagles's medium (U87, U118, U138, U373, T98 and BT-20) or Leibovitz's L-15 medium (MDA-MB-231 and MDA-MB-361). All media were supplemented with 10% fetal calf serum (FCS), 4 mM glutamine, 100 U/ml penicillin G and […] streptomycin sulfate. All tissue culture reagents were obtained from Life Technologies Inc. (GIBCO-BRL, Gaithersburg, Md.).
(§2) The cytotoxicity of [VO(SO4)(Me2-Phen)2] against human cancer cell lines was analyzed using the MTT (3-[4,5-dimethylthiazol-2-yl]-2,5-diphenyl tetrazolium bromide) assay (Boehringer Mannheim Corp., Indianapolis, Ind.) as described previously (Narla et al., Clin Cancer Res., 4: 1405-1414, 1998). […] The absorbance at 540 nm (a reference wavelength of 690 nm was used) of the solution in each well was measured using a microplate reader (Labsystems). The percent survival and the IC50 values were calculated using Graphpad Prism v2.0 (Graphpad Software, Inc., San Diego, Calif.) as described previously (Narla et al., Supra). […]
Background: Tetrazolium assays rely on reduction of a dye to a coloured formazan, in cell work by metabolically active cells.

A further test deals with MDA-MB-231 cells. As to the kind of experiment: In vitro invasion assay, Matrigel-coated Boyden chambers, MDA-MB-231. Type of test: cell-based, human. Particulars: 24 h preincubation, 3 experiments, read-out: Mean IC50 inhibition of invasion through Matrigel matrix. How it is done:
(§3) Tumor invasion of the basement membrane is a crucial step in the complex multistage process that leads to metastatic spread. Tumor cells cross the basement membrane as they initially invade the lymphatic or vascular beds during dissemination and as they penetrate their target tissues. […]
(§4) Invasion of cancer cells treated with [VO(SO4)(Me2-Phen)2] was assayed using Matrigel-coated Costar 24-well transwell cell culture chambers (“Boyden chambers”) with 8.0-μm-pore polycarbonate filter inserts as described previously (Narla et al., Clin Cancer Res, 4: 2463-2471, 1998; Ghosh et al., Anticancer Drug Des, 14: 403-410, 1999; Albini et al., J Cell Biol, 105: 1867-1872, 1987). […] The cells were trypsinized, washed twice with serum-free medium containing BSA, counted and resuspended in a serum-free medium at 1×10^5 cells/ml. […] The invasive cells that migrated to the lower side of the filter were fixed, stained with Hema-3 solution and counted under a light microscope. Five to 10 random fields per filter were counted to determine the invasive fraction. The invasive fractions of cells treated with [VO(SO4)(Me2-Phen)2] were compared to those of DMSO-treated control cells and the percent inhibition of invasiveness was determined. […]

Test [2] has as its system MDA-MB-231 breast cancer cells. As to the kind of experiment: MTT cytotoxicity assay, MDA-MB-231. Format: cell-based, human. As to conditions: MDA-MB-231 cells, 48 h incubation, 3 independent experiments, read-out: IC50 (mean ± SE). On the procedure:
as §1, §2

Test [3] has as its system U87 human glioblastoma cells. As to the kind of experiment: MTT cytotoxicity assay, U87. Type of test: cell-based. Particulars: 48 h incubation, 3 independent experiments, read-out: IC50 (mean ± SE). On the procedure: as §1, §2
For a further test, the system named is U87 cells. As to the kind of experiment: In vitro invasion assay, Matrigel-coated Boyden chambers, U87. Type of test: cell-based, human. Particulars: 24 h preincubation, 3 experiments, read-out: Mean IC50 inhibition of invasion through Matrigel matrix. How it is done: as §3, §4

The term IC50 denotes the midpoint of a concentration-inhibition curve. For `Cc1ccnc2c1ccc1c(C)ccnc12.Cc1ccnc2c1ccc1c(C)ccnc12.O=S(=O)([O-])[O-].[O]=[V+2]` [[VO(SO4)(Me2-Phen)2], bis(4,7-dimethyl-1,10-phenanthroline) sulfatooxovanadium (IV)], the IC50 in test [1] came to 2700 ± 400 nM; in the test with MDA-MB-231 cells, 600 ± 300 nM; in test [2], 500 ± 100 nM; in test [3], 2100 ± 600 nM; with U87 cells it was 780 ± 400 nM.

For the origin of these results see US6878388B1, “Vanadium compounds for treating proliferative cell disorders” (Parker Hughes Institute, priority 2000, dated 2005).
